Laboratory results reported in patent US12577273B2, “Small molecule modulators of gut bacterial bile acid metabolism” (priority 2019, dated 2026).
Entries after “also recorded” stand apart in the source; their conditions may differ. Like-named read-outs stand apart in the source and are kept apart here.

Tests used:
[1] = test system: conventional mice; test: Food intake of conventional mice dosed with 3S-LCA-FMK; type: in vivo, mouse; conditions: compared to mice dosed with vehicle
[2] = test system: C57BL/6 mice; conditions: for detection in circulating plasma: in vivo
[3] = test system: BSH activity in conventional mouse feces; test: Screen of inhibitors in conventional mouse feces; type: biochemical
Procedure: Screen of Inhibitors in Conventional Mouse Feces. […] The tubes were then frozen in dry ice for 5 mins and upon thawing were diluted with an equal volume of methanol. […] The supernatant was removed into a clean eppendorf tube and centrifuged again. […] The concentration of product detected from these assays was reported directly.

[4] = test system: C57BL/6 mice; conditions: mouse, in vivo
Procedure: Animal Studies. C57BL/6 mice obtained from Jackson laboratories were maintained under a strict 12 h/12 h light/dark cycle and a constant temperature (21±1° C.) and humidity (55-65%). All experiments were conducted on 8-9 week old male mice.
Mice were fed powdered standard chow diet (LabDiet, catalog no. 5053) for the duration of the experiment. Mice were split into two groups of ten mice each and were maintained on powdered chow (control group) or fed powdered chow containing 0.09% (w/w) GR-7 (experimental group). Feces from these mice were collected as described above at 8 h. Mice were euthanized after 30 hours of access to the powdered chow with or without GR-7 using carbon dioxide. Blood samples were collected by cardiac puncture and placed in EDTA-coated tubes on ice. The liver and cecal contents were then collected from each mouse, snap frozen in liquid nitrogen, and stored at −80° C. until further analysis. […]
BSH Activity in Feces. BSH activity in fecal pellets were quantified using a modified version of a published method.^45 Fecal pellets (approximately 10-20 mg) were suspended in buffer (10% PBS, 90% sodium acetate at pH 5.2) containing 100 μM (GCDCA-d4) to obtain a concentration of 20 mg/mL. […] The concentration of product detected from these assays were reported directly.
Quantification of Bile Acids in Tissues and Plasma. […]
Quantification of bacterial 16S rDNA copy number. […]

[5] = test system: differentiated Caco-2 cells; test: Epithelial permeability assay (4 kDa FITC-dextran)
[6] = test system: B. adolescentis BSH; test: Target validation and off-target profiling in B. adolescentis using 7-N3; type: cell-based, Bifidobacterium adolescentis L2-32
Procedure: Target Validation and Off-target Profiling in B. adolescentis using 7-N3. Pilot studies with 7-N3 were performed using B. adolescentis (Gram positive) and B. theta (Gram negative). We chose to use B. adolescentis due to the stronger total fluorescent signal detected by-in gel fluorescence. […] Cultures were allowed to grow anaerobically at 37° C. for 21 h. 10 μM 7-N3 (10 mM stock in DMSO) or […] DMSO (to control tubes) was then added to the cultures and incubated anaerobically at 37° C. for 1 h. The cultures were centrifuged at 2,500 g at 4° C. for 15 mins. The media was decanted and cells were resuspended in PBS containing 1 mM TCEP and 1 mM PMSF and centrifuged 4,200 rpm at 4° C. for 15 mins. The buffer was decanted and the cells were suspended in 300 μL of fresh buffer and transferred to homogenizing tubes (Precellys lysing kit tough micro-organism lysing VK05 tubes) with ceramic beads. The suspension was then homogenized (5000 speed for 90 s*2, 6500 speed for 60 s) and spun down for 20 min at 15,000 g at 4° C. The supernatant was removed and the concentration of proteins in the lysate was quantified by Bradford assay. The lysates were then subjected to click reaction as per “Click Chemistry for In-gel Fluorescence Imaging” for fluorescence imaging and “Click Chemistry for MS/MS on Bacterial Lysate” for mass spectrophotometer-based quantification and identification.
Cultures were allowed to grow anaerobically at 37° C. for 21 h. Decreasing concentrations of 7 were added to different tubes and the cultures were incubated anaerobically at 37° C. for 1 h. 10 μM 7-N3 was then added to the cultures and incubated anaerobically at 37° C. for an additional hour. The cultures were further processed as per the reported method in “Target Validation and Off-target Profiling in B. adolescentis using 7-N3” and “Click Chemistry for In-gel Fluorescence Imaging”.
Click Chemistry for In-gel Fluorescence Imaging. Click reactions were performed on 25 μL scale. Lysates (normalized to 1.5 mg/mL for both bacterial and mammalian cells) pretreated with 10 μM Compound 7-N3 were incubated with 100 μM fluor 488-alkyne (10 mM stock in DMSO), 100 μM CuBr (5 mM stock in DMSO), and 100 μM Tris[(1-benzyl-1H-1,2,3-triazol-4-yl)methyl]amine (5 mM stock in 4:1 t-BuOH:DMSO) for 1 h at 37° C. in the dark. 10 μL of 2×Laemmli buffer (containing 5% β-mercaptoethanol) was added to the reactions and the tubes were heated at 95° C. for 10 mins. 15 μL of the protein samples were then resolved by 10% SDS-PAGE. The ladder was diluted 100-fold and 10 μL was loaded. Gels were destained for 30 mins using 40% methanol, 50% acetic acid, 10% water and visualized using Bio-Rad ChemiDoc MP Imaging System. Gels were stained for 20 mins in Coomassie blue and destained for 2 h prior to imaging.
Click Chemistry for MS/MS on Bacterial Lysate. Click reactions were performed on 100 μL scale. Lysates (normalized to 1.3 mg/mL) pretreated with 10 μM 7-N3 were incubated with 100 μM desthiobiotin-PEG4-alkyne (10 mM stock in DMSO), 1 mM CuBr (50 mM stock in DMSO), and 1 mM Tris[(1-benzyl-1H-1,2,3-triazol-4-yl)methyl]amine (50 mM stock in 4:1 t-BuOH:DMSO) for 1 h at 37° C. The samples were then processed for further analysis as per “Proteomic Analysis of Click-Tagged Proteins”.
Proteomic Analysis of Click-Tagged Proteins.

[7] = test system: NCI-H716 cells; test: Off-target profiling in mammalian cells using 7-N3; type: cell-based, human
Procedure: Off-Target profiling in Mammalian Cells using 7-N3. The human epithelial cell line NCI-H716 was used to study interactions with mammalian proteins. 10 μM 7-N3 (10 mM stock in DMSO) or 1 uL DMSO (for control) were added to ˜8×10^6 cells in 1 ml DPBS (HiMedia) and incubated for 1 h. Cells were collected in 15 ml Falcon tubes and washed 2 times in 15 ml DBPS by centrifugation at 500 g for 5 mins. A 3rd wash by centrifugation was performed in 1 mM solution of cOmplete™ Protease Inhibitor Cocktail (Roche, Switzerland) in DPBS. Cells were resuspended in 250 ul of DPBS with 1 mM cOmplete™ Protease Inhibitor Cocktail and sonicated at 50% amplitude for 2 secs followed by 30 secs on ice for 3 cycles. The lysate was centrifuged at 15,000 g for 15 mins at 4° C. The supernatant was removed and protein concentration was measured by Bradford assay. The lysates were then subjected to click reaction as per “Click Chemistry for In-gel Fluorescence Imaging” for in-gel fluorescence and “Click Chemistry for MS/MS on Mammalian Lysate” for mass spectrophotometer-based quantification and identification.
Click Chemistry for In-gel Fluorescence Imaging. Click reactions were performed on 25 μL scale. […]
Proteomic Analysis of Click-Tagged Proteins. […] Indicated bands were excised, subjected to in-gel digestion, and extracted peptides analyzed by nanoflow LC-MS/MS as described.^53

Compound: C[C@H](CCC(=O)CF)[C@H]1CC[C@H]2[C@@H]3CC[C@@H]4C[C@H](OS(=O)(=O)O)CC[C@]4(C)[C@H]3CC[C@]12C [Compound 3S-LCA-FMK, 3-sulfated-lithocholic acid-fluoromethyl ketone]
- food intake [1]: significant decrease in food consumption; also recorded: reduces food intake
- BSH activity in feces ([2]; 0.03% weight/weight in chow ad libitum for 7 days): significantly reduced
- detection in circulating plasma ([2]; male, C57Bl/6, mouse): No 3S-LCA-FMK was detectable
- detection in circulating plasma ([2]; mouse): not detectable

Compound: C[C@H](CCC(=O)CF)[C@H]1CC[C@H]2[C@@H]3[C@H](O)C[C@@H]4C[C@H](OS(=O)(=O)[O-])CC[C@]4(C)[C@H]3CC[C@]12C.[Na+] [GR-7]
- BSH inhibition in mouse fecal slurry (in words) ([3]; 20 μM or 60 μM of GR-7, 30 mins, GCDCA-d4 100 μM, 18 hours): remains a potent pan-BSH inhibitor; also recorded: inhibited BSH activity in a fecal slurry
- detection in feces [4]: detected
- microbial biomass (16S rDNA copies/g in cecal contents) [4]: did not affect microbial biomass
- epithelial barrier integrity of Caco-2 cells ([5]; 60 μM): did not affect epithelial barrier integrity
- epithelial monolayer integrity (passive diffusion of 4 kDa FITC-dextran) ([5]; differentiated Caco-2, apical chamber, 6 or 12 h): did not compromise epithelial monolayer integrity

Compound: C[C@H](CCC(=O)CF)[C@H]1CC[C@H]2[C@@H]3[C@H](O)C[C@@H]4C[C@H](N=[N+]=[N-])CC[C@]4(C)[C@H]3CC[C@]12C [Compound 7-N3]
- BSH inhibition in conventional mouse feces (in words) ([3]; 7-N3, concentration not given): significant BSH inhibition; also recorded: potently inhibited BSH activity in mouse feces
- in-gel fluorescence labeling in B. adolescentis L2-32 ([6]; 10 μM, 1 hour, click with Fluor 488-alkyne): labeling of only one protein; also recorded: Only one fluorescent band was visible
- enrichment of BSH in gel bands, probe- versus vehicle-treated cultures ([6]; desthiobiotin-alkyne, streptavidin pulldown, in-gel digestion, LC-MS/MS, semi-quantitative): 4.5 fold
- enrichment of other bacterial proteins ([6]; label-free LC-MS/MS, biological triplicate): ≤ 2 fold
- enrichment of BSH in probe-treated cultures ([6]; on-bead digestion, label-free LC-MS/MS): 3.6 fold
- in-gel fluorescence labeling in NCI-H716 cells ([7]; 10 μM, 1 h, click with Fluor 488-alkyne): no significant labeling of proteins; also recorded: no enrichment of any band
- enrichment of proteins in probe-treated NCI-H716 lysates ([7]; label-free LC-MS/MS): ≤ 2 fold
